Test results as given in patent US20240246942A1, “KINASE INHIBITORS FOR THE TREATMENT OF NEURODEGENERATIVE DISEASES” (priority 2020, published 2024).

How the values were obtained:
Assay in all cases: biochemical
[1] = molecular target: T1, panel of 374 wild-type kinases (Homo sapiens, UniProt P05129); details: read-out: % Enzyme Activity (relative to DMSO controls), kinase PKCg
T1 construct: purchased Reaction Biology Corporation

[2] = molecular target: T2, panel of 374 wild-type kinases (Homo sapiens, UniProt P37173); details: read-out: % Enzyme Activity (relative to DMSO controls), kinase TGFBR2
T2 construct: purchased Reaction Biology Corporation

[3] = molecular target: T3, panel of 374 wild-type kinases (Homo sapiens, UniProt P42684); details: read-out: % Enzyme Activity (relative to DMSO controls), ABL2/ARG
T3 construct: purchased Reaction Biology Corporation

[4] = molecular target: T4, panel of 374 wild-type kinases (Homo sapiens, UniProt P46734); details: read-out: % Enzyme Activity (relative to DMSO controls), MEK3
T4 construct: purchased Reaction Biology Corporation
T4 sequence (P46734 1-347): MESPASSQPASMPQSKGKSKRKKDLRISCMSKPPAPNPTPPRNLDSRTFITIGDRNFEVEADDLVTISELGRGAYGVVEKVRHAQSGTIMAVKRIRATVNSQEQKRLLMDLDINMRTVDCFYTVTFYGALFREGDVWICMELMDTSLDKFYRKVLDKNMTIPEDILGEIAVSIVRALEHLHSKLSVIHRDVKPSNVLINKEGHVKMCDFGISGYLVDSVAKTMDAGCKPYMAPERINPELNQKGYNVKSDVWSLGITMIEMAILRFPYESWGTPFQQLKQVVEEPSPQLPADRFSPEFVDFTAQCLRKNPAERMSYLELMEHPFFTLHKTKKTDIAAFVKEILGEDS

[5] = molecular target: T5, panel of 374 wild-type kinases (Homo sapiens, UniProt P49336); details: read-out: % Enzyme Activity (relative to DMSO controls), CDK8/cyclin C
T5 construct: purchased Reaction Biology Corporation

[6] = molecular target: T6, panel of 374 wild-type kinases (Homo sapiens, UniProt P49840); details: read-out: % Enzyme Activity (relative to DMSO controls), GSK3a
T6 construct: purchased Reaction Biology Corporation

[7] = molecular target: T7, panel of 374 wild-type kinases (Homo sapiens, UniProt Q86Y07); details: read-out: % Enzyme Activity (relative to DMSO controls), kinase VRK2
T7 construct: purchased Reaction Biology Corporation

[8] = molecular target: T8, panel of 374 wild-type kinases (Homo sapiens, UniProt Q8IYT8); details: read-out: % Enzyme Activity (relative to DMSO controls), kinase ULK2
T8 construct: purchased Reaction Biology Corporation
T8 sequence (Q8IYT8 1-1036): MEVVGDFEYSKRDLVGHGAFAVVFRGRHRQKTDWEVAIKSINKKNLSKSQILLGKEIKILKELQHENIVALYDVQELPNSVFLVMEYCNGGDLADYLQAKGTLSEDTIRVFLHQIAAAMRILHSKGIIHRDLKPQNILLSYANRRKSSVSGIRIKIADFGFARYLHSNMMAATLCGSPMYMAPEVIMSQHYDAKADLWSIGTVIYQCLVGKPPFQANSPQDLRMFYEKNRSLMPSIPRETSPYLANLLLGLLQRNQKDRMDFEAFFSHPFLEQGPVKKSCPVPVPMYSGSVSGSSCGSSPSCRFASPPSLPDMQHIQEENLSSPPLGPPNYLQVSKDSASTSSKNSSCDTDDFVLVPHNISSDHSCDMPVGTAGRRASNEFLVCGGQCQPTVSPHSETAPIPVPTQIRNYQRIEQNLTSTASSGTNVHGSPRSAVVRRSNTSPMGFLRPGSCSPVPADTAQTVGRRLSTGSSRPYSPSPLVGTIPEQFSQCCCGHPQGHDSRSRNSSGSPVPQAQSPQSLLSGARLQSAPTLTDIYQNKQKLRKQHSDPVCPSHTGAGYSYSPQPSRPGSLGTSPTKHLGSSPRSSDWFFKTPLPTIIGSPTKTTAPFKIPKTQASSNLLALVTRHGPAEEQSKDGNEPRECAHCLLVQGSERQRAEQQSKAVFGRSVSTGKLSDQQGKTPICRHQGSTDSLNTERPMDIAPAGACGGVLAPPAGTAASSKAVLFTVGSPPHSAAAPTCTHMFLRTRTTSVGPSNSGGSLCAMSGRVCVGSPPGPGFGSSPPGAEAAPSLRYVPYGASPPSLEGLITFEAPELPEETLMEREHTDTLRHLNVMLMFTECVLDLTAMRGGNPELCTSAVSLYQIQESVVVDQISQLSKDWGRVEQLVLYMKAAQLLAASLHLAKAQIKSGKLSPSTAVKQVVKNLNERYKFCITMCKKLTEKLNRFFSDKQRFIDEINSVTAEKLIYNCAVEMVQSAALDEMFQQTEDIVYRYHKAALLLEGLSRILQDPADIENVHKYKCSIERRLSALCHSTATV

[9] = molecular target: T9, panel of 374 wild-type kinases (Homo sapiens, UniProt Q9H1R3); details: read-out: % Enzyme Activity (relative to DMSO controls), MLCK2/MYLK2
T9 construct: purchased Reaction Biology Corporation

[10] = molecular target: T10, panel of 374 wild-type kinases (Homo sapiens, UniProt Q9H4B4); details: read-out: % Enzyme Activity (relative to DMSO controls), kinase PLK3
T10 construct: purchased Reaction Biology Corporation

T2 sequence (P37173 23-567): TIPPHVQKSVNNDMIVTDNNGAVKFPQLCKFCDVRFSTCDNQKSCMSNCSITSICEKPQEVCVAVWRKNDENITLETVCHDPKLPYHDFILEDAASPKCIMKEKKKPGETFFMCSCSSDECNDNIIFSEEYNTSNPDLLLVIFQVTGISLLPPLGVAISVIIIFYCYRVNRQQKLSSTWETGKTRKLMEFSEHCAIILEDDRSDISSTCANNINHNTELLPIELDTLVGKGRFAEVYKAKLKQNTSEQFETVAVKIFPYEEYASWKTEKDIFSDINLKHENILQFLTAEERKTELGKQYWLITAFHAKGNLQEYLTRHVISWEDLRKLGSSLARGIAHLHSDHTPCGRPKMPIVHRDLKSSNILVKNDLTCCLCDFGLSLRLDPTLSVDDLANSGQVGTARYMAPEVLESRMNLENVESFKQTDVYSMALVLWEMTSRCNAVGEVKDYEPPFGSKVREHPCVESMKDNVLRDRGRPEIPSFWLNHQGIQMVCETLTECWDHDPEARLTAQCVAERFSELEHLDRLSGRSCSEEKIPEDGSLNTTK
T9 sequence (Q9H1R3 whole entry): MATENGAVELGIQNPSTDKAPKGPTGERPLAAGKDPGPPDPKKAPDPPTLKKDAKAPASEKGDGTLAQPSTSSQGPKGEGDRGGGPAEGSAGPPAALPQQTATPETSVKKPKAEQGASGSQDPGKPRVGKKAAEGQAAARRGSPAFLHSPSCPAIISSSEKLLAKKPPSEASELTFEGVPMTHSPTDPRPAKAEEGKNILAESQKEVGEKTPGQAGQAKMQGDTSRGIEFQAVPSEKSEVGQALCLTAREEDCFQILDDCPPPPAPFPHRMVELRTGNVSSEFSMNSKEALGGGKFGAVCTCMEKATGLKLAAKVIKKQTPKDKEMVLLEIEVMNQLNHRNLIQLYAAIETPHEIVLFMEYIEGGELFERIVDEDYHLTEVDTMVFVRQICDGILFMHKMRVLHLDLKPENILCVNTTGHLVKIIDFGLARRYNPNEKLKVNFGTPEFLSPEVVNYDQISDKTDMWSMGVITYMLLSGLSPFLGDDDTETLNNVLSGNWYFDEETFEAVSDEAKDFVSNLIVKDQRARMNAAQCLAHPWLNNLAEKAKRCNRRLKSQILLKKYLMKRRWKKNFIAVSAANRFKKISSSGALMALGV
T7 sequence (Q86Y07 whole entry): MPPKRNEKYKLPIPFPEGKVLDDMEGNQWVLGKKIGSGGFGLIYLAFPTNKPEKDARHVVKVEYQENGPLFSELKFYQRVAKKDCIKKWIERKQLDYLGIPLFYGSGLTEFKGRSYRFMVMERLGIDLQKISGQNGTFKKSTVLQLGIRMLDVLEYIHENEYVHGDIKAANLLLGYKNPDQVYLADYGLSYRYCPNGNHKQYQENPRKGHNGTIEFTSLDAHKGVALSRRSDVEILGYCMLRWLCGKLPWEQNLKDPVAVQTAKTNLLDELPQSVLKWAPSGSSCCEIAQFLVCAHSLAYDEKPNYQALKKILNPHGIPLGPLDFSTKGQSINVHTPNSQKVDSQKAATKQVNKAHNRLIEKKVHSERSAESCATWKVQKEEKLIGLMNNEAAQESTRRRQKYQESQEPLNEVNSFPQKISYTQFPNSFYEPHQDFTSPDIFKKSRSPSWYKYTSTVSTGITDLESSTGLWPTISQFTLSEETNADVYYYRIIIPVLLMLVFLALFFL
T6 sequence (P49840 whole entry): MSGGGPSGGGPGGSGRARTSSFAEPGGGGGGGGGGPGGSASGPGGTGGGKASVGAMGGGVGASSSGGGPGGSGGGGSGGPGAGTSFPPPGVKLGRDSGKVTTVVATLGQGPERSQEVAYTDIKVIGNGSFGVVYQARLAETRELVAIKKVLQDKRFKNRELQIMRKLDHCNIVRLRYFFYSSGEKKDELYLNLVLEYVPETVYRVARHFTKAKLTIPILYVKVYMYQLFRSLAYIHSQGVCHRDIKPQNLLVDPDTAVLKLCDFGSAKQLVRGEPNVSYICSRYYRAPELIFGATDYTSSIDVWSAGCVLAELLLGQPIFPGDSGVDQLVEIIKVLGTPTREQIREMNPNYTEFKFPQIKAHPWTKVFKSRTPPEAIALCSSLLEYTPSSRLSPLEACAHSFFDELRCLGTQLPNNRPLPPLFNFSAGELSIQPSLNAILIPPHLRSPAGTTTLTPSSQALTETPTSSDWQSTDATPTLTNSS
T3 sequence (P42684 whole entry): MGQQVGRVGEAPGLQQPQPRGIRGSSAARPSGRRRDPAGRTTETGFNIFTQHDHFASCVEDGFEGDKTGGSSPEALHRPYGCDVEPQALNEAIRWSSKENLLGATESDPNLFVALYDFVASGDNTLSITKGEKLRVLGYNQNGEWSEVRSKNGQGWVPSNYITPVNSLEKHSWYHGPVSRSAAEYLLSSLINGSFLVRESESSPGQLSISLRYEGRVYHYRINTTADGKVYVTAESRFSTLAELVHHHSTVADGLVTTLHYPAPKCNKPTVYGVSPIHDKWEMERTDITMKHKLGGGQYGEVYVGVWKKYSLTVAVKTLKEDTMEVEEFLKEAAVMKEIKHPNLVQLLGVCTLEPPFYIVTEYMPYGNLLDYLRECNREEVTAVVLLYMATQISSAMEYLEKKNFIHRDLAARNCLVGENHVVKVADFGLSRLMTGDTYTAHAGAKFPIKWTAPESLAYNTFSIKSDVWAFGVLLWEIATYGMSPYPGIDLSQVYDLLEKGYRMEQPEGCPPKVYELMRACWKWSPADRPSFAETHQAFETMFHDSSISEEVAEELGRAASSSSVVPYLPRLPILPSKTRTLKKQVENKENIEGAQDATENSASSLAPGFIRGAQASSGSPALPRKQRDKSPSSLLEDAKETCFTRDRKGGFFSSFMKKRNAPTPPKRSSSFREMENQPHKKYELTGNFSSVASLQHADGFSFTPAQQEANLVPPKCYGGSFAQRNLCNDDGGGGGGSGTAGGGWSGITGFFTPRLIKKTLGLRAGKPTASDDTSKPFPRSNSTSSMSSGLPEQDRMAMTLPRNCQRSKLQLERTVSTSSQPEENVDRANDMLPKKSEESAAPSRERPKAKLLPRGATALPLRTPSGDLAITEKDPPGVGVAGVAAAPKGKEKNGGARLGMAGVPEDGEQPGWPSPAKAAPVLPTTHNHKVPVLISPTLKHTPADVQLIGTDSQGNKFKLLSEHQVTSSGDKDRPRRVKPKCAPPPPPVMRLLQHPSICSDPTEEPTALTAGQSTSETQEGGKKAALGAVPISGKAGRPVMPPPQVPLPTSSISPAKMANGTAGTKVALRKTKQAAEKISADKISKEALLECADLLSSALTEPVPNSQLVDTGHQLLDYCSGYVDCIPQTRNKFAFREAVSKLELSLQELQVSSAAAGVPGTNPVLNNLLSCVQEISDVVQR
T5 sequence (P49336 whole entry): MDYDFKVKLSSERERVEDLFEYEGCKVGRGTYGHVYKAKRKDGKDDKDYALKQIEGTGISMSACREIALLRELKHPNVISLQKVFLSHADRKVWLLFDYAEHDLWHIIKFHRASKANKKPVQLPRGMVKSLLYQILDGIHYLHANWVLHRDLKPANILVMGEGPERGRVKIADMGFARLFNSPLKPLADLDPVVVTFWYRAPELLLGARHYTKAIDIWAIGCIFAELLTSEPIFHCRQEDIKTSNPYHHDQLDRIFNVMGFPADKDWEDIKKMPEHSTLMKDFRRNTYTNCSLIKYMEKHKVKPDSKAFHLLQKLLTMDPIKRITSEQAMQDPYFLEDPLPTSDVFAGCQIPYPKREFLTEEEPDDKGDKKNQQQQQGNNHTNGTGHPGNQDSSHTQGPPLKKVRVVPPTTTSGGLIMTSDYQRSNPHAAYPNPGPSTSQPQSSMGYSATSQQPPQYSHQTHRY

Compound | remaining activity at 5 µM [1] [%] | remaining activity at 5 µM [2] [%] | remaining activity at 5 µM [3] [%] | remaining activity at 5 µM [4] [%] | remaining activity at 5 µM [5] [%] | remaining activity at 5 µM [6] [%] | remaining activity at 5 µM [7] [%] | remaining activity at 5 µM [8] [%] | remaining activity at 5 µM [9] [%] | remaining activity at 5 µM [10] [%] | remaining activity at 10 µM ([1]; 10 uM) [%] | remaining activity at 10 µM ([2]; 10 uM) [%] | remaining activity at 10 µM ([3]; 10 uM) [%] | remaining activity at 10 µM ([4]; 10 uM) [%] | remaining activity at 10 µM ([5]; 10 uM) [%] | remaining activity at 10 µM ([6]; 10 uM) [%] | remaining activity at 10 µM ([7]; 10 uM) [%] | remaining activity at 10 µM ([8]; 10 uM) [%] | remaining activity at 10 µM ([9]; 10 uM) [%] | remaining activity at 10 µM ([10]; 10 uM) [%]
O=C(Nc1cnn(-c2csc(C(=O)NC3COC3)c2)c1)Nc1c(F)cccc1Cl [Compound 25, 4-(4-(3-(2-chloro-6-fluorophenyl)ureido)-1H-pyrazol-1-yl)-N-(oxetan-3-yl)thiophene-2-carboxamide] | 98.3 | 82.6 | 88.7 | 111 | 99 | 93.5 | 102 | 105 | 83.5 | 96 |  |  |  |  |  |  |  |  |  | 
O=C(Nc1cnn(-c2csc(C(=O)NC3COC3)c2)c1)Nc1ccccc1Cl [Compound 17, 4-(4-(3-(2-chlorophenyl)ureido)-1H-pyrazol-1-yl)-N-(oxetan-3-yl)thiophene-2-carboxamide] | 98 | 113 | 92.7 | 104 | 101 | 97.4 | 103 | 196 | 89.9 | 96.1 |  |  |  |  |  |  |  |  |  | 
Cc1sc(C(=O)NC2COC2)cc1-n1cc(NC(=O)Nc2c(F)cccc2Cl)cn1 [Compound 27, 4-(4-(3-(2-chloro-6-fluorophenyl)ureido)-1H-pyrazol-1-yl)-5-methyl-N-(oxetan-3-yl)thiophene-2-carboxamide] |  |  |  |  |  |  |  |  |  |  | 102 | 86.8 | 123 | 88.8 | 92.7 | 128 | 102 | 74.9 | 78.7 | 102
